target: T1, human histamine H4 receptor (Homo sapiens, UniProt Q9H3N8); test: Binding Assay on Recombinant Human Histamine H4 Receptor (3H-histamine competition, membranes of transfected SK-N-MC or COS7 cells); further: ligand 5 nM
T1 construct: expressed in transfected cells; host or cells: SK-N-MC cells or COS7 cells, transiently transfected; membranes prepared
Description: SK-N-MC cells or COS7 cells were transiently transfected with pH4R and grown in 150 cm^2 tissue culture dishes. Cells were washed with saline solution, scraped with a cell scraper and collected by centrifugation (1000 rpm, 5 min). Cell membranes were prepared by homogenization of the cell pellet in 20 mM Tris-HCl with a polytron tissue homogenizer for 10 sec at high speed. Homogenate was centrifuged at 1000 rpm for 5 min at 4° C. The supernatant was then collected and centrifuged at 20,000×g for 25 min at 4° C. The final pellet was resuspended in 50 mM Tris-HCl. […] Incubation occurred at room temperature for 45 min. Membranes were harvested by rapid filtration over Whatman GF/C filters and washed 4 times with ice-cold 50 mM Tris HCl. Filters were then dried, mixed with scintillant and counted for radioactivity.

T1 sequence (Q9H3N8 whole entry): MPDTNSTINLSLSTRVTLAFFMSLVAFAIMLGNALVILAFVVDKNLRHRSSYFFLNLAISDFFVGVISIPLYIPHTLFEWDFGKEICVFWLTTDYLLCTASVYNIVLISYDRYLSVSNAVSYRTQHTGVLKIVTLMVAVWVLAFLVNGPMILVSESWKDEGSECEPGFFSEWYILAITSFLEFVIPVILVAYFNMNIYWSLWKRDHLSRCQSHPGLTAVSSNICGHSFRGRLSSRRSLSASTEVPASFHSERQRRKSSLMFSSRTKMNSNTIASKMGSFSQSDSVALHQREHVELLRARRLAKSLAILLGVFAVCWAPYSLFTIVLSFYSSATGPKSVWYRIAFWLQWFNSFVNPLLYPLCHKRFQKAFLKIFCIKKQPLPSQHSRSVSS

Row | SMILES | Ki [µM]
1 | Cc1cccc2[nH]c(-c3ccc(NCCCC4CCN(C)CC4)nc3)nc12 [Example 23, [5-(4-Methyl-1H-benzoimidazol-2-yl)-pyridin-2-yl]-[3-(1-methyl-piperidin-4-yl)-propyl]-amine] | 0.24
2 | Cc1c(F)ccc2[nH]c(-c3ccnc(NC(=O)CCCC4CCN(C)CC4)c3)nc12 [Example 20, N-[4-(5-Fluoro-4-methyl-1H-benzoimidazol-2-yl)-pyridin-2-yl]-4-(1-methyl-piperidin-4-yl)-butyramide] | 0.25
3 | CN1CCC(CCCNc2ccc(-c3nc4cc(F)ccc4[nH]3)cn2)CC1 [Example 32, [5-(5-Fluoro-1H-benzoimidazol-2-yl)-pyridin-2-yl]-[3-(1-methyl-piperidin-4-yl)-propyl]-amine] | 0.041
